Test results taken from patent publication US12404250B2, “PARP inhibitors for treating cancer and asthma” (Oregon Health & Science University, priority 2018, dated 2025).

What was measured:
PARP10cat = molecular target: T1, PARP10cat (Homo sapiens, UniProt Q53GL7); assay: In vitro IC50, PARP10cat; format: biochemical; conditions: SEM from a minimum of three dose-response experiments
T1 construct: bcat; cat; PARP11
T1 sequence (Q53GL7 806-1025 limits assumed): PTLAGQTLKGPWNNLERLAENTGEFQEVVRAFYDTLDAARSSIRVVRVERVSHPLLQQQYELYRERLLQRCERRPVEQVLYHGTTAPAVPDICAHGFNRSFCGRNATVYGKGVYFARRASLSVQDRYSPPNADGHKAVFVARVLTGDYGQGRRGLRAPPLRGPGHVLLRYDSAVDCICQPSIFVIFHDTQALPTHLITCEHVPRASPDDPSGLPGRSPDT

PARP5 bcat = molecular target: T2, PARP5 bcat (Homo sapiens, UniProt Q9H2K2); assay: In vitro IC50, PARP5bcat; format: biochemical; conditions: SEM from a minimum of three dose-response experiments
T2 construct: bcat
T2 sequence (Q9H2K2 959-1164): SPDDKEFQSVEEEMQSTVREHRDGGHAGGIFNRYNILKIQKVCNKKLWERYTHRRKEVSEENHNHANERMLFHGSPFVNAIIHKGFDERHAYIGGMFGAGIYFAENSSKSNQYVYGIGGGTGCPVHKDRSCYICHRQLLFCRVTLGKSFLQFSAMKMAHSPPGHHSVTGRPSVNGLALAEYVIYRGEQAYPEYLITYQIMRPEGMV

PARP6 = molecular target: T3, PARP6 (Homo sapiens, UniProt Q2NL67); assay: In vitro IC50, immunoprecipitated GFP-PARP6 auto-MARylation; format: biochemical
T3 construct: expressed in transfected cells; host or cells: HEK 293T
T3 sequence (Q2NL67 whole entry): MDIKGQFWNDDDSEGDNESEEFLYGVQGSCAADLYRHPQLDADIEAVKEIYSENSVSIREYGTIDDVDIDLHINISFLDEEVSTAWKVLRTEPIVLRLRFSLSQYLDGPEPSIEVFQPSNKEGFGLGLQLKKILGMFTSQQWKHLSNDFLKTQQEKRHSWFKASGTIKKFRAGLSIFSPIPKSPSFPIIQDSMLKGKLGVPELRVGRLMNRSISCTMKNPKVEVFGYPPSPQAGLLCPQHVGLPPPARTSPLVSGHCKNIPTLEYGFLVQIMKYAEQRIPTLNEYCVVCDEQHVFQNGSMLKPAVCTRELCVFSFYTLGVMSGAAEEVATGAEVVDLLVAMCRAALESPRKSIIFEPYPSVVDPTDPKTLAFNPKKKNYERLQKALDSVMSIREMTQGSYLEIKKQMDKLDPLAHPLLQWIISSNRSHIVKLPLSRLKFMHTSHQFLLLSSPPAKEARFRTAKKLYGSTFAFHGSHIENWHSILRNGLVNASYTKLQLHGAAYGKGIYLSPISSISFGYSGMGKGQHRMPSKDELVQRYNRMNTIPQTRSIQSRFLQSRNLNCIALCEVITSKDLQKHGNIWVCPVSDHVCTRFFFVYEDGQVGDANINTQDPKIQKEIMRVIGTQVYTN
Procedure: Auto-MARylation was analyzed by Western blot with an ADP-ribose (ADPr) binding reagent (uncropped blots shown below).

PARP4 Brct-cat = molecular target: T4, PARP4 Brct-cat (Homo sapiens, UniProt Q9UKK3); assay: In vitro IC50, PARP4 Brct-cat; format: biochemical; conditions: SEM from a minimum of three dose-response experiments
T4 construct: PARP4 Brct-cat
T4 sequence (Q9UKK3 1-573 limits assumed): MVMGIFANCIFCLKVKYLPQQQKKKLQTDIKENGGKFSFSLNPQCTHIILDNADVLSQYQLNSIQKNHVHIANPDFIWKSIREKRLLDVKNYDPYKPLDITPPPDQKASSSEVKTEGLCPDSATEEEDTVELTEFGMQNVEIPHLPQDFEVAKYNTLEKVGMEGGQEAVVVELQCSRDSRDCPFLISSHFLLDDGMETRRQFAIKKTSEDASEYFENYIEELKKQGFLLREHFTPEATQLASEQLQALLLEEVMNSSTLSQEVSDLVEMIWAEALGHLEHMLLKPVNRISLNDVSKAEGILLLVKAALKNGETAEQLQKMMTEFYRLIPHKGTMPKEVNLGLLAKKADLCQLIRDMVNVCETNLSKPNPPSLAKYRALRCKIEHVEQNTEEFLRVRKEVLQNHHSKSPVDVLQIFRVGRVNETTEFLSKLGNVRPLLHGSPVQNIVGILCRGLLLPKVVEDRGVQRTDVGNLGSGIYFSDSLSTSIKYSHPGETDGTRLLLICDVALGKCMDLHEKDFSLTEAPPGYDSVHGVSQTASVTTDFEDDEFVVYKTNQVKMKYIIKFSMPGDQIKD

PARP10 = molecular target: T5, PARP10 (Homo sapiens, UniProt Q53GL7); assay: GFP-PARP10 auto-MARylation in HEK 293T cells (Western blot); conditions: for Inhibition of PARP10 auto-MARylation in cells at 3 μM: HEK 293T cells transfected with GFP-PARP10, 3 μM for 3 h
T5 sequence (Q53GL7 1-1025): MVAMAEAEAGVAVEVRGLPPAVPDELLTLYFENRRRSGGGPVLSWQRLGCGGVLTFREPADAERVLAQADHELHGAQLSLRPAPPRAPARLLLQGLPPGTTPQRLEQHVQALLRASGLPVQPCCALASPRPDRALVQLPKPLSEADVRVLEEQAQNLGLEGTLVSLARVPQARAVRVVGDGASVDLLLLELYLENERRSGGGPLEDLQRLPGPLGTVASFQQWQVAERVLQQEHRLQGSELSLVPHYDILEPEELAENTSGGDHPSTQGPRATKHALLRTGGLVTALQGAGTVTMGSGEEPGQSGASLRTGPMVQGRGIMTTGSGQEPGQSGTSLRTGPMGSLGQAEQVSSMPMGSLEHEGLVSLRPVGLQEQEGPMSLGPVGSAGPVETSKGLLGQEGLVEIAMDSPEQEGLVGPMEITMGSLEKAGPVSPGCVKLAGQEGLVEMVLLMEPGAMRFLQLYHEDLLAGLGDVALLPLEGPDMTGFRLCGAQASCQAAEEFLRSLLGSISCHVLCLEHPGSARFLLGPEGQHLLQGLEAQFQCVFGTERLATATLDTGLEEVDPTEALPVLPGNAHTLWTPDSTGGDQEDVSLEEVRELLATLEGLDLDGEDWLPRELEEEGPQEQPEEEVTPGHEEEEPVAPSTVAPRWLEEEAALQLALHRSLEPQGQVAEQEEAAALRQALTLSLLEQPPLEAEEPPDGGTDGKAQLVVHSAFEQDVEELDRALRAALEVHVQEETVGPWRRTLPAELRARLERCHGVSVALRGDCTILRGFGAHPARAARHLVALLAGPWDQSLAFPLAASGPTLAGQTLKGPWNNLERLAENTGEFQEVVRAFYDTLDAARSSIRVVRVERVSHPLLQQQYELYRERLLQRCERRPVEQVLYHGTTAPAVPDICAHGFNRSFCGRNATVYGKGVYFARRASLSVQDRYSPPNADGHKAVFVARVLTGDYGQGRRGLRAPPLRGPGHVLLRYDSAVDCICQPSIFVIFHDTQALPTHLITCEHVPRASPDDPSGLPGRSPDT

PARP11 = molecular target: T6, PARP11 (Homo sapiens, UniProt Q9NR21); assay: In vitro IC50, PARP11 (plate assay, MARylation of SRPK2 and NXF1); format: biochemical; conditions: SEM from a minimum of three dose-response experiments
T6 sequence (Q9NR21 1-338): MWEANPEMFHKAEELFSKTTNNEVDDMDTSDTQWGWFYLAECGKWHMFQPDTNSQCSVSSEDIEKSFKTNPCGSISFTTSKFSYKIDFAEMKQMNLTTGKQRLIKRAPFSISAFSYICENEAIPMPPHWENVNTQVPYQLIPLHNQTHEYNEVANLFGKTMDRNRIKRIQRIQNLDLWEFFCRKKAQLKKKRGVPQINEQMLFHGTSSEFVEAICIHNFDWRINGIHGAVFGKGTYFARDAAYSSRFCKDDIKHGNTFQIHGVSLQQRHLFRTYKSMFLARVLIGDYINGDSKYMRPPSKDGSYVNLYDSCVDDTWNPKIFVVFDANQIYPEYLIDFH
Text: Curves generated using Prism 7 (Graph Pad); error bars indicate ±SEM from at least two replicates.

SMILES | IC50 (PARP10cat) [µM] | IC50 (PARP5 bcat) [µM] | IC50 (PARP6) [µM] | IC50 (PARP4 Brct-cat) [µM] | Inhibition of PARP10 auto-MARylation in cells at 3 μM (PARP10) | Inhibition of PARP10 auto-MARylation in cells, dose response (PARP10; HEK 293T cells transfected with GFP-PARP10, increasing concentrations for 90 min) | IC50 (PARP11) [µM]
CC#Cc1ccc2c(=O)[nH]c(CSc3ccc(C(=O)O)cc3)nc2c1C [ITK6, 4-(((8-methyl-4-oxo-7-(prop-1-yn-1-yl)-3,4-dihydroquinazolin-2-yl)methyl)thio) benzoic acid] | 0.156 ± 0.018 | > 30 | > 3 | > 30 | inhibits PARP10 auto-MARylation in cells | inhibits PARP10 auto-MARylation in cells in a dose dependent manner | 0.099 ± 0.016
CC#Cc1ccc2c(=O)[nH]c(CSc3ncccn3)nc2c1C [ITK7, 8-methyl-7-(prop-1-yn-1-yl)-2-((pyrimidin-2-ylthio)methyl)quinazolin-4(3H)-one] | 9.28 ± 1.57 | > 30 | > 3 | > 30 | does not inhibit PARP10 | – | 0.014 ± 0.003
